{"source": "paper PMC5218480", "about": "(PLoS ONE, 2017)", "tested_on": "MV-4-11 cells", "assay": "Gene expression microarray analysis (Affymetrix PrimeView) and GSEA", "type": "cell-based, human", "set-up": "RFU PODN (11730768_x_at) / Fold change /veh PODN (11730768_x_at) / RFU LINC00158 (11744669_a_at) / Fold change /veh LINC00158 (11744669_a_at) / RFU DUSP10 (11751237_a_at) / Fold change /veh DUSP10 (11751237_a_at) / RFU ID3 (11757404_x_at) / Fold change /veh ID3 (11757404_x_at) / RFU PLEKHG5 (11737974_s_at) / Fold change /veh PLEKHG5 (11737974_s_at) / RFU LRRC4B (11730491_at) / Fold change /veh LRRC4B (11730491_at) / RFU GIMAP4 (11747438_a_at) / Fold change /veh GIMAP4 (11747438_a_at) / RFU KRT8 (11758183_x_at) / Fold change /veh KRT8 (11758183_x_at) / RFU CNN1 (11734310_a_at) / Fold change /veh CNN1 (11734310_a_at) / RFU VPS37D (11726825_at) / Fold change /veh VPS37D (11726825_at) / RFU C10orf10 (11716522_x_at) / Fold change /veh C10orf10 (11716522_x_at) / RFU KIR2DL2 /// KIR2DL4 /// KIR2DL5A /// KIR2DL5B /// KIR2DS1 /// KIR2DS2 /// KIR2DS3 /// KIR2DS4 /// KIR3DL3 /// KIR3DL3 /// KIR3DS1 (11738374_at) / Fold change /veh KIR2DL2 /// KIR2DL4 /// KIR2DL5A /// KIR2DL5B /// KIR2DS1 /// KIR2DS2 /// KIR2DS3 /// KIR2DS4 /// KIR3DL3 /// KIR3DL3 /// KIR3DS1 (11738374_at) / RFU C1QL1 (11718748_at) / Fold change /veh C1QL1 (11718748_at) / RFU TMPRSS4 (11747572_a_at) / Fold change /veh TMPRSS4 (11747572_a_at) / RFU HAMP (11756126_x_at) / Fold change /veh HAMP (11756126_x_at) / RFU RNFT2 (11725882_a_at) / Fold change /veh RNFT2 (11725882_a_at) / RFU NR4A2 (11747474_a_at) / Fold change /veh NR4A2 (11747474_a_at) / RFU ABCC12 (11746883_a_at) / Fold change /veh ABCC12 (11746883_a_at) / RFU TMEM136 (11760407_x_at) / Fold change /veh TMEM136 (11760407_x_at) / RFU CLDN22 /// WWC2 (11732394_at) / Fold change /veh CLDN22 /// WWC2 (11732394_at) / RFU HLA-DPB1 (11760878_x_at) / Fold change /veh HLA-DPB1 (11760878_x_at) / RFU SPINT1 (11716480_a_at) / Fold change /veh SPINT1 (11716480_a_at) / RFU GAP43 (11754022_s_at) / Fold change /veh GAP43 (11754022_s_at) / RFU A4GNT (11735810_at) / Fold change /veh A4GNT (11735810_at) / RFU PRB3 (11715151_x_at) / Fold change /veh PRB3 (11715151_x_at) / RFU TUBB4B (11761932_at) / Fold change /veh TUBB4B (11761932_at) / RFU CAPN14 (11732068_a_at) / Fold change /veh CAPN14 (11732068_a_at) / RFU TMCC2 (11721928_a_at) / Fold change /veh TMCC2 (11721928_a_at) / RFU IRGQ (11745062_a_at) / Fold change /veh IRGQ (11745062_a_at) / RFU FAM174B (11720279_a_at) / Fold change /veh FAM174B (11720279_a_at) / RFU TMPRSS4 (11748680_a_at) / Fold change /veh TMPRSS4 (11748680_a_at) / RFU FAM212B (11763350_a_at) / Fold change /veh FAM212B (11763350_a_at) / RFU PLEKHG5 (11743358_a_at) / Fold change /veh PLEKHG5 (11743358_a_at) / RFU ZSCAN30 (11745921_a_at) / Fold change /veh ZSCAN30 (11745921_a_at) / RFU CMKLR1 (11741424_a_at) / Fold change /veh CMKLR1 (11741424_a_at) / RFU LOC101060620 /// MAPK8IP1 (11723275_at) / Fold change /veh LOC101060620 /// MAPK8IP1 (11723275_at) / RFU SPTSSB (11747773_x_at) / Fold change /veh SPTSSB (11747773_x_at) / RFU PRSS12 (11739890_at) / Fold change /veh PRSS12 (11739890_at) / RFU BIN1 (11741810_x_at) / Fold change /veh BIN1 (11741810_x_at) / RFU WNT11 (11732464_a_at) / Fold change /veh WNT11 (11732464_a_at) / RFU C10orf10 (11716521_a_at) / Fold change /veh C10orf10 (11716521_a_at) / RFU C5orf56 (11738089_at) / Fold change /veh C5orf56 (11738089_at) / RFU CYB561 (11721691_x_at) / Fold change /veh CYB561 (11721691_x_at) / RFU ANKRD19P (11752326_a_at) / Fold change /veh ANKRD19P (11752326_a_at) / RFU OR2T12 /// OR2T33 /// OR2T8 (11738714_s_at) / Fold change /veh OR2T12 /// OR2T33 /// OR2T8 (11738714_s_at) / RFU VCAN (11748164_a_at) / Fold change /veh VCAN (11748164_a_at) / RFU JSRP1 (11732532_at) / Fold change /veh JSRP1 (11732532_at) / RFU KRTAP10-11 (11738290_x_at) / Fold change /veh KRTAP10-11 (11738290_x_at) / RFU MYO3A (11730013_a_at) / Fold change /veh MYO3A (11730013_a_at) / RFU EBF3 (11725865_a_at) / Fold change /veh EBF3 (11725865_a_at) / RFU CAMK2N1 (11719241_x_at) / Fold change /veh CAMK2N1 (11719241_x_at) / RFU C5orf56 (11738088_a_at) / Fold change /veh C5orf56 (11738088_a_at) / RFU OLFML3 (11715873_a_at) / Fold change /veh OLFML3 (11715873_a_at) / RFU LOC100653217 /// NTM (11731650_a_at) / Fold change /veh LOC100653217 /// NTM (11731650_a_at) / RFU MAPK11 (11762145_a_at) / Fold change /veh MAPK11 (11762145_a_at) / RFU FIZ1 (11724087_x_at) / Fold change /veh FIZ1 (11724087_x_at) / RFU OASL (11726364_x_at) / Fold change /veh OASL (11726364_x_at) / RFU SOX15 (11748057_x_at) / Fold change /veh SOX15 (11748057_x_at) / RFU CD79A (11719716_a_at) / Fold change /veh CD79A (11719716_a_at) / RFU HIST1H1D (11736915_at) / Fold change /veh HIST1H1D (11736915_at) / RFU CASKIN2 (11723855_a_at) / Fold change /veh CASKIN2 (11723855_a_at) / RFU LOC730098 (11760151_x_at) / Fold change /veh LOC730098 (11760151_x_at) / RFU OR4N2 (11742367_at) / Fold change /veh OR4N2 (11742367_at) / RFU PRRT2 (11749266_a_at) / Fold change /veh PRRT2 (11749266_a_at) / RFU SNX32 (11753110_a_at) / Fold change /veh SNX32 (11753110_a_at) / RFU CDHR5 (11726645_a_at) / Fold change /veh CDHR5 (11726645_a_at) / RFU RCAN1 (11760418_a_at) / Fold change /veh RCAN1 (11760418_a_at) / RFU FAM167A (11723789_a_at) / Fold change /veh FAM167A (11723789_a_at) / RFU FAM26E (11764081_at) / Fold change /veh FAM26E (11764081_at) / RFU ISYNA1 (11749810_s_at) / Fold change /veh ISYNA1 (11749810_s_at) / RFU ACY1 (11761880_at) / Fold change /veh ACY1 (11761880_at) / RFU 11764098_at / Fold change /veh 11764098_at / RFU SAMD14 (11745864_x_at) / Fold change /veh SAMD14 (11745864_x_at) / RFU NPB (11741838_a_at) / Fold change /veh NPB (11741838_a_at) / RFU TMPRSS6 (11731388_a_at) / Fold change /veh TMPRSS6 (11731388_a_at) / RFU KRTAP10-2 (11738614_at) / Fold change /veh KRTAP10-2 (11738614_at) / RFU ARHGAP8 /// PRR5-ARHGAP8 (11727945_x_at) / Fold change /veh ARHGAP8 /// PRR5-ARHGAP8 (11727945_x_at) / RFU KRTAP5-7 /// NADSYN1 (11734609_at) / Fold change /veh KRTAP5-7 /// NADSYN1 (11734609_at) / RFU RASL12 (11751679_a_at) / Fold change /veh RASL12 (11751679_a_at) / RFU CDKN2B (11736163_a_at) / Fold change /veh CDKN2B (11736163_a_at) / RFU PRF1 (11729649_at) / Fold change /veh PRF1 (11729649_at) / RFU, ZNF638 /// ZNF638-IT1 / Fold change vs veh, ZNF638 /// ZNF638-IT1 / RFU, PANK3 / Fold change vs veh, PANK3 / RFU, SH3YL1 / Fold change vs veh, SH3YL1 / RFU, ZEB2 / Fold change vs veh, ZEB2 / RFU, NRIP1 / Fold change vs veh, NRIP1 / RFU, PTTG1IP / Fold change vs veh, PTTG1IP / RFU, CAPN2 / Fold change vs veh, CAPN2 / RFU, MED14 / Fold change vs veh, MED14 / RFU, SNORA58 / Fold change vs veh, SNORA58 / RFU, C1orf63 / Fold change vs veh, C1orf63 / RFU, LRRFIP1 / Fold change vs veh, LRRFIP1 / RFU, NDUFAF7 / Fold change vs veh, NDUFAF7 / RFU, SLC12A2 / Fold change vs veh, SLC12A2 / RFU, IBTK / Fold change vs veh, IBTK / RFU, ESF1 / Fold change vs veh, ESF1 / Fold change vs veh, TMEM50B / RFU, TAOK1 / Fold change vs veh, TAOK1 / RFU, ACBD3 / Fold change vs veh, ACBD3 / RFU, TMA16 / Fold change vs veh, TMA16 / RFU, RWDD3 / Fold change vs veh, RWDD3 / RFU, BCAT1 / Fold change vs veh, BCAT1 / RFU, EDEM3 / Fold change vs veh, EDEM3 / RFU, TMEM33 / Fold change vs veh, TMEM33 / RFU, WDR75 / Fold change vs veh, WDR75 / RFU, AHCTF1 / Fold change vs veh, AHCTF1 / RFU, TFRC / Fold change vs veh, TFRC / RFU, ZDHHC17 / Fold change vs veh, ZDHHC17 / RFU, NOM1 / Fold change vs veh, NOM1 / RFU, ARL8B / Fold change vs veh, ARL8B / RFU, ZBTB11 / Fold change vs veh, ZBTB11 / RFU, TAMM41 / Fold change vs veh, TAMM41 / RFU, KIAA1704 /// LOC100996395 / Fold change vs veh, KIAA1704 /// LOC100996395 / RFU, ING1 / Fold change vs veh, ING1 / RFU, TRMT61B / Fold change vs veh, TRMT61B / RFU, FUBP3 / Fold change vs veh, FUBP3 / RFU, TP53 / Fold change vs veh, TP53 / RFU, TNKS2 / Fold change vs veh, TNKS2 / RFU, ZFP14 / Fold change vs veh, ZFP14 / RFU, ACTR2 / Fold change vs veh, ACTR2 / RFU, PPP3R1 / Fold change vs veh, PPP3R1 / RFU, PIK3R1 / Fold change vs veh, PIK3R1 / RFU, HNRNPA1 / Fold change vs veh, HNRNPA1 / RFU, RNF170 / Fold change vs veh, RNF170 / RFU, ZNF28 / Fold change vs veh, ZNF28 / RFU, RNGTT / Fold change vs veh, RNGTT / RFU, OGT / Fold change vs veh, OGT / RFU, BRD1 / Fold change vs veh, BRD1 / RFU, MARS / Fold change vs veh, MARS / RFU, ZNF655 / Fold change vs veh, ZNF655 / RFU, FAHD1 / Fold change vs veh, FAHD1 / RFU, BDP1 / Fold change vs veh, BDP1 / RFU, LRRCC1 / Fold change vs veh, LRRCC1 / RFU, ARID1A / Fold change vs veh, ARID1A / RFU, ZNF146 / Fold change vs veh, ZNF146 / RFU, ZNF330 / Fold change vs veh, ZNF330 / RFU, GPN3 / Fold change vs veh, GPN3 / RFU, C9orf123 / Fold change vs veh, C9orf123 / RFU, N4BP2L2 / Fold change vs veh, N4BP2L2 / RFU, ARFIP1 / Fold change vs veh, ARFIP1 / RFU, FAM179B / Fold change vs veh, FAM179B / RFU, BCL10 / Fold change vs veh, BCL10 / RFU, UHRF1BP1L / Fold change vs veh, UHRF1BP1L / RFU, BET1 / Fold change vs veh, BET1 / RFU, CNOT2 / Fold change vs veh, CNOT2 / RFU, ZNF268 / Fold change vs veh, ZNF268 / Fold change vs veh, ZNF507 / RFU, DGCR2 / Fold change vs veh, DGCR2 / RFU, WDSUB1 / Fold change vs veh, WDSUB1 / Fold change vs veh, HSP90B1 /// MIR3652 / RFU, ADSS / Fold change vs veh, ADSS / RFU, GK / Fold change vs veh, GK / RFU, ZNF148 / Fold change vs veh, ZNF148 / RFU, TAF9 / Fold change vs veh, TAF9 / RFU, SLC1A5 / Fold change vs veh, SLC1A5 / RFU, SLMO2 / Fold change vs veh, SLMO2 / RFU, ABCC4 / Fold change vs veh, ABCC4 / RFU, LOC101060439 /// RAP1B / Fold change vs veh, LOC101060439 /// RAP1B / RFU, RFX7 / Fold change vs veh, RFX7 / RFU, GTPBP10 / Fold change vs veh, GTPBP10 / RFU, CNEP1R1 / Fold change vs veh, CNEP1R1 / RFU, BIVM-ERCC5 /// ERCC5 / Fold change vs veh, BIVM-ERCC5 /// ERCC5 / RFU, ILF3 / Fold change vs veh, ILF3 / RFU 11762660_at / Fold change /veh 11762660_at / RFU VCAN (11757783_s_at) / Fold change /veh VCAN (11757783_s_at) / RFU DDX43 (11728927_at) / Fold change /veh DDX43 (11728927_at) / RFU KRT8 (11758188_x_at) / Fold change /veh KRT8 (11758188_x_at) / RFU NKD1 (11759106_at) / Fold change /veh NKD1 (11759106_at) / RFU SRD5A1 (11742802_a_at) / Fold change /veh SRD5A1 (11742802_a_at) / RFU TPSAB1 /// TPSB2 (11721975_s_at) / Fold change /veh TPSAB1 /// TPSB2 (11721975_s_at) / RFU GSTM3 (11746129_a_at) / Fold change /veh GSTM3 (11746129_a_at) / RFU IL23R (11737362_x_at) / Fold change /veh IL23R (11737362_x_at) / RFU TMEM51 (11727254_a_at) / Fold change /veh TMEM51 (11727254_a_at) / RFU PIWIL2 (11732686_x_at) / Fold change /veh PIWIL2 (11732686_x_at) / RFU ORM1 (11744905_x_at) / Fold change /veh ORM1 (11744905_x_at) / RFU CCDC152 (11743942_at) / Fold change /veh CCDC152 (11743942_at) / RFU ECM1 (11717891_a_at) / Fold change /veh ECM1 (11717891_a_at) / RFU IL23R (11748794_a_at) / Fold change /veh IL23R (11748794_a_at) / RFU TNFAIP8L3 (11732012_x_at) / Fold change /veh TNFAIP8L3 (11732012_x_at) / RFU MBOAT4 (11741988_at) / Fold change /veh MBOAT4 (11741988_at) / RFU 11764193_at / Fold change /veh 11764193_at / RFU TMEM53 (11763286_at) / Fold change /veh TMEM53 (11763286_at) / RFU MAGEB2 (11727129_at) / Fold change /veh MAGEB2 (11727129_at) / RFU TMEM200A (11744735_a_at) / Fold change /veh TMEM200A (11744735_a_at) / RFU CCDC152 (11751479_a_at) / Fold change /veh CCDC152 (11751479_a_at) / RFU FAM211A (11726209_a_at) / Fold change /veh FAM211A (11726209_a_at) / RFU RGS16 (11746705_a_at) / Fold change /veh RGS16 (11746705_a_at) / RFU VCAN (11755009_s_at) / Fold change /veh VCAN (11755009_s_at) / RFU RHOB (11743442_s_at) / Fold change /veh RHOB (11743442_s_at) / RFU RGS16 (11720943_a_at) / Fold change /veh RGS16 (11720943_a_at) / RFU RGS16 (11720944_at) / Fold change /veh RGS16 (11720944_at) / RFU, VPS4B / Fold change vs veh, VPS4B / RFU, CREB1 / Fold change vs veh, CREB1 / RFU, DNAJC13 / Fold change vs veh, DNAJC13 / RFU, GNAQ / Fold change vs veh, GNAQ / RFU, CDK5R1 / Fold change vs veh, CDK5R1 / RFU, ZRANB3 / Fold change vs veh, ZRANB3 / RFU, CUL4A / Fold change vs veh, CUL4A / RFU, CCNY / Fold change vs veh, CCNY / RFU, UFL1 / Fold change vs veh, UFL1 / RFU, COG3 / Fold change vs veh, COG3 / RFU, DIAPH2 / Fold change vs veh, DIAPH2 / RFU, SKA2 / Fold change vs veh, SKA2 / RFU, AFF3 / Fold change vs veh, AFF3 / RFU, LMF1 / Fold change vs veh, LMF1 / RFU, IPO11 / Fold change vs veh, IPO11 / RFU, DFFB / Fold change vs veh, DFFB / RFU, FOXP1 / Fold change vs veh, FOXP1 / RFU, CARD8 / Fold change vs veh, CARD8 / RFU, STRN3 / Fold change vs veh, STRN3 / RFU, ADK / Fold change vs veh, ADK / RFU, RASSF2 / Fold change vs veh, RASSF2 / RFU, WIPF1 / Fold change vs veh, WIPF1 / RFU, LARP1B / Fold change vs veh, LARP1B / RFU, RASA1 / Fold change vs veh, RASA1 / RFU, RB1 / Fold change vs veh, RB1 / RFU, PPFIA1 / Fold change vs veh, PPFIA1 / RFU, MAT2A / Fold change vs veh, MAT2A / RFU, CCT5 / Fold change vs veh, CCT5 / RFU, WDR92 / Fold change vs veh, WDR92 / RFU, CUX1 / Fold change vs veh, CUX1 / RFU, TTC7A / Fold change vs veh, TTC7A / RFU, TMEM135 / Fold change vs veh, TMEM135 / RFU, DEPTOR / Fold change vs veh, DEPTOR / RFU, CPM / Fold change vs veh, CPM / RFU, DNAJB6 / Fold change vs veh, DNAJB6 / RFU, CACNA2D3 / Fold change vs veh, CACNA2D3 / RFU, DTX4 / Fold change vs veh, DTX4 / RFU, TFCP2 / Fold change vs veh, TFCP2 / RFU, GMCL1 /// GMCL1P1 / Fold change vs veh, GMCL1 /// GMCL1P1 / RFU, AEBP2 / Fold change vs veh, AEBP2 / RFU, SNHG1 /// SNORD22 /// SNORD25 /// SNORD26 /// SNORD27 /// SNORD28 /// SNORD29 /// SNORD31 / Fold change vs veh, SNHG1 /// SNORD22 /// SNORD25 /// SNORD26 /// SNORD27 /// SNORD28 /// SNORD29 /// SNORD31 / Fold change (Aza/veh), C12orf56 (ProbeSet 11735607_a_at) / Fold change (ACY-1035/veh), C12orf56 (ProbeSet 11735607_a_at) / Fold change (Aza/veh), FGFR1OP (ProbeSet 11751329_s_at) / Fold change (ACY-1035/veh), FGFR1OP (ProbeSet 11751329_s_at) / Fold change (Aza/veh), VPS36 (ProbeSet 11739960_a_at) / Fold change (ACY-1035/veh), VPS36 (ProbeSet 11739960_a_at) / RFU SYPL1 (11715823_x_at) / Fold change /veh SYPL1 (11715823_x_at) / RFU IGFBP7 (11715501_s_at) / Fold change /veh IGFBP7 (11715501_s_at) / RFU REEP3 (11722064_at) / Fold change /veh REEP3 (11722064_at) / RFU IGLL1 (11728026_x_at) / Fold change /veh IGLL1 (11728026_x_at): dose or concentration left out as unconfirmed", "details": "MV-4-11 cells, 48 hours"}
{"smiles": "Nc1ncn([C@@H]2O[C@H](CO)[C@@H](O)[C@H]2O)c(=O)n1", "note": "[azacitidine]", "values": [{"measurement": "RFU RCAN1 (11760418_a_at)", "value": 18.64, "unit": "RFU"}]}
